According to US20210030735A1 (Tesaro, Inc., priority 2018, published 2021):
In brackets after ≈: the same amount, converted by molar mass. Read-outs that look alike come from different tables or passages of the source.

Columns and labels:
[1] = drug substance
Protocol: The particle size analyzer can determine particle size using low-angle laser light scattering and calculates results in % volume based on equivalent spheres. Volume distributions for the D10, D50, D90, D4,3, and D3,2 can be determined. The suspension is added to the tank until the obscuration is in range, targeting a 10% obscuration. Measurements are taken once the obscuration remains consistent.
These batches were divided into sub-lots at various time intervals and each sub-lot was analyzed for content uniformity. The batches used are described in Table 12.

[2] = tested on: platinum-sensitive recurrent epithelial ovarian, fallopian tube, or primary peritoneal cancer; settings: for PFS Median: niraparib 300 mg QD; for HR, CFI / HR, TFST: niraparib versus placebo
Excerpt: All patients had received at least two prior platinum-containing regimens and were in response (complete or partial) to their most recent platinum-based regimen. Eligible patients were assigned to one of two cohorts based on the results of a germline BRCA mutation test. […] Randomization occurred within 8 weeks of the last dose of the most recent platinum-containing regimen. […] Clinic visits occurred each cycle (4 weeks ±3 days). […] Prior to unblinding of the study, tumors of patients randomized to the non-gBRCAmut cohort were tested for the presence of homologous recombination deficiency (HRD) using the Myriad myChoice® HRD test, which evaluates three independent biomarkers of tumor genome instability: loss of heterozygosity, telomeric allelic imbalance, and large-scale state transitions. Tumors with homologous recombination deficiencies and those with somatic BRCA mutations were defined as HRD positive (HRDpos). The primary efficacy analysis for PFS was prospectively defined and assessed for the gBRCAmut cohort. The primary efficacy analysis for PFS was prospectively defined and assessed for the non-gBRCAmut cohort with a hierarchical testing schema. In the first step, PFS was assessed in the group of patients with HRDpos tumors and if significant, PFS was assessed in the overall non-gBRCAmut cohort. Secondary efficacy endpoints included chemotherapy-free interval (CFI), time to first subsequent therapy (TFST), PFS after the first subsequent therapy (PFS2), time to second subsequent therapy (TSST) and OS (overall survival).

[3] = tested on: tumor models
[4] = tested on: juvenile rats; settings: rat, in vivo, 1 month
[5] = tested on: beagle dogs; settings: dog, in vivo, 1 month
[6] = tested on: recurrent solid tumors that exhibit a BRCAness mutational signature; settings: oral niraparib in combination with TSR-042, patients between 6 months and 18 years
[7] = in vivo; settings: tumor, 50 mg/kg
[8] = physchem

With `Cc1ccc(S(=O)(=O)O)cc1.NC(=O)c1cccc2cn(-c3ccc([C@@H]4CCCNC4)cc3)nc12` [niraparib tosylate monohydrate, 2-{4-[(3S)-piperidin-3-yl]phenyl}-2H-indazole 7-carboxamide 4-methylbenzenesulfonate hydrate (1:1:1)] the bulk density [1] was 0.34-0.45 g/cc and the tapped density [1] was 0.53-0.66 g/cc.

In the case of `NC(=O)c1cccc2cn(-c3ccc([C@@H]4CCCNC4)cc3)nc12` [Niraparib, niraparib], the “PFS Median” value ([2]; HRDpos group of the non-gBRCAmut cohort, N = 106) is reported as 12.9 months, the “Median CFI (chemotherapy-free interval)” value ([2]; gBRCAmut cohort) is reported as 22.8 months and the “Median TFST (time to first subsequent therapy)” value ([2]; gBRCAmut cohort) is reported as 21.0 months. For the same compound, the “PFS Median” value ([2]; gBRCAmut cohort, N = 138) was 21.0 months, the “HR, CFI” value ([2]; gBRCAmut cohort) was 0.26 and the “HR, TFST” value ([2]; gBRCAmut cohort) was 0.31. For the same compound, the “Median CFI (chemotherapy-free interval)” value ([2]; non-gBRCAmut cohort) was 12.7 months, the “Median TFST (time to first subsequent therapy)” value ([2]; non-gBRCAmut cohort) was 11.8 months and the “HR, CFI” value ([2]; non-gBRCAmut cohort) was 0.50. The “HR, TFST” value ([2]; non-gBRCAmut cohort) was 0.55, the “PFS Median” value ([2]; overall non-gBRCAmut cohort, N = 234) was 9.3 months and the tumor regression ([3]; 50 mg/kg, daily dosing) was “tumor regression”. For the same compound, the tumor regression ([3]; dose of 75 mg/kg, same model) was “did not result in tumor regression”, the no-observed-adverse-effect-level [4] was 10 mg/kg/day and the no-observed-adverse-effect-level [5] was 6 mg/kg/day. For the same compound, the “treatment of pediatric cancer patients, result of the study” value [6] was “can be used successfully”, the concentration at 6 h [7] was 4.57 µg/mL and the pKa [8] was 9.95. The solubility ([8]; aqueous media across the physiological pH range, aqueous buffer) was 0.7 to 1.1 mg/mL (≈ 2180 to 3430 µM).
